Patent US5264443A, “3-aryl oxazolidinone compounds and therapeutic use thereof” (Delalande S.A., priority 1991, dated 1993)

Each compound was assayed on 5-hydroxy tryptophan (5-HTP) (assay: potentialisation of 5-HTP in the rat (anti-depressive activity)). Details: 1 h, oral administration, 5-HTP intraperitoneally one hour after the first treatment, read-out: ED50 (dose producing generalised tremors or stereotypy in 50% of the animals).
Format: in vivo
Excerpt: The anti-depressive activity was shown by the test of potentialisation of 5-HTP in the rat by the method described by M. JALFRE, B. BUCHER, A. COSTON, G. MOCQUET and R. D. PORSOLT: Arch. Int. Pharmacodyn., (1982), 259, 194-221. A determination on the rat was made of that dose of the product which, orally administered, produces generalised tremors or stereotypy (drumming, head movements) in 50% of the animals (ED50) after intraperitoneal administration of 5-hydroxy tryptophan (5-HTP) one hour after the first treatment. The results obtained in the preceding test, using some compounds according to the invention, are given by way of example in the following table: […]

In order of falling ED50:
1. COC[C@H]1CN(c2ccc(OCC[C@@H](OCc3ccc[n+]([O-])c3)C(F)(F)F)cc2)C(=O)O1 [MD 290065, 3-[4-[4,4,4-trifluoro3-(3-N-oxide-pyridylmethoxy)(R)butoxy]phenyl]5-methoxymethyl(R) 2-oxazolidinone]  0.62 mg/kg
2. COC[C@H]1CN(c2ccc(OCC[C@@H](OCc3ccncc3)C(F)(F)F)cc2)C(=O)O1 [MD 290057, 3-[4-[4,4,4-trifluoro 3-(4-pyridylmethoxy)(R)butoxy]phenyl]5-methoxymethyl(R)2-oxazolidinone]  0.53 mg/kg
3. COC[C@H]1CN(c2ccc(OCC[C@@H](OCc3cccnc3)C(F)(F)F)cc2)C(=O)O1 [MD 360411 (oxalate), 3-[4-[4,4,4-trifluoro 3-(3-pyridylmethoxy)(R)butoxy]phenyl]5-methoxymethyl(R)2-oxazolidinone]  0.4 mg/kg
